Earlier results in paper PMC3159817 (Journal of chemical information and modeling, 2011).

How the values were obtained:
[1] = test system: RNase H active site of RT with DNA:RNA substrate bound
[2] = test system: HIV-1 reverse transcriptase Y501 mutants

## CC(C)c1ccc(O)c(=O)c(O)c1 [β-thujaplicinol]
[1]
  competition with nucleic acid substrate: appears unable to compete with the intact nucleic acid substrates

## CC(C)(C)c1ccc(C(=O)NN=Cc2c(O)ccc3ccccc23)cc1 [BBNH, N-(4-tert-butylbenzoyl)-2-hydroxy-1-naphthaldehyde hydrazone]
[2]
  effect of Y501 mutations on inhibition: mutations of Y501 result in resistance to inhibition
